Tested on: α-SMA expression in MRC5 cells
Assay: inhibition of α-SMA expression in MRC5 cells, image screening method
Format: cell-based
Details: Homo sapiens; MRC5, compound 10 μM, TGF-β1 5 ng/mL, 72 hours, relative to TGF-β1 alone; read-out: Inhibitory activity (α-SMA expression inhibition)
Method in brief: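 MRC5 cells exposed to compound (10 μM) or DMSO with TGF-β1 (5 ng/mL) for 72 h, then fixed, permeabilised, blocked and immunostained for α-SMA (FITC) and GAPDH. Image-based quantitation; α-SMA level with compound plus TGF-β1 expressed relative to TGF-β1 alone.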

| SMILES | inhibition at 10 µM [%] |
| --- | --- |
| O=C(N[C@@H]1CCOC1)N1CCN(Cc2ccccn2)c2ccccc21 [Compound 98, (R)-4-(pyridin-2-ylmethyl)-N-(tetrahydrofuran-3-yl)-3,4-dihydroquinoxaline-1(2H)-carboxamide] | 30 to 50 |
| O=C(NC1COC1)N1CCN(Cc2ccccn2)c2ccccc21 [Compound 99, N-(oxetan-3-yl)-4-(pyridin-2-ylmethyl)-3,4-dihydroquinoxaline-1(2H)-carboxamide] | 30 to 50 |
| O=C(NCC1CCOC1)N1CCN(Cc2ccccn2)c2ccccc21 (stereo not drawn) [Compound 100, 4-(pyridin-2-ylmethyl)-N-((tetrahydrofuran-3-yl)methyl)-3,4-dihydroquinoxaline-1(2H)-carboxamide] | 30 to 50 |
| O=C(NCC1CCOCC1)N1CCN(Cc2ccccn2)c2ccccc21 [Compound 101, 4-(pyridin-2-ylmethyl)-N-((tetrahydro-2H-pyran-4-yl)methyl)-3,4-dihydroquinoxaline-1(2H)-carboxamide] | 30 to 50 |
| O=C(NCC1CC1)N1CCN(Cc2ccccn2)c2ccccc21 [Compound 102, N-(cyclopropylmethyl)-4-(pyridin-2-ylmethyl)-3,4-dihydroquinoxaline-1(2H)-carboxamide] | 30 to 50 |
| O=C(N[C@@H]1CCNC1)N1CCN(C2CCCCC2)c2ccccc21 [Compound 104, (R)-4-cyclohexyl-N-(pyrrolidin-3-yl)-3,4-dihydroquinoxaline-1(2H)-carboxamide] | 10 to 30 |
| CC(C)CN1CC[C@@H](NC(=O)N2CCN(C3CCCCC3)c3ccccc32)C1 [Compound 106, (R)-4-cyclohexyl-N-(1-isobutylpyrrolidin-3-yl)-3,4-dihydroquinoxaline-1(2H)-carboxamide] | 30 to 50 |
| CN1CCN(C(=O)N2CCN(C3CCCCC3)c3ccccc32)CC1 [Compound 107, (4-cyclohexyl-3,4-dihydroquinoxalin-1(2H)-yl)(4-methylpiperazin-1-yl)methanone] | 10 to 30 |
| O=C(N1CCCC1)N1CCN(C2CCCCC2)c2ccccc21 [Compound 108, (4-cyclohexyl-3,4-dihydroquinoxalin-1(2H)-yl)(pyrrolidin-1-yl)methanone] | 30 to 50 |
| O=C(N1CCCCC1)N1CCN(C2CCCCC2)c2ccccc21 [Compound 109, (4-cyclohexyl-3,4-dihydroquinoxalin-1(2H)-yl)(piperidin-1-yl)methanone] | 30 to 50 |
| O=C(NCC1CCNCC1)N1CCN(C(=O)c2ccccc2)c2ccccc21 [Compound 114, 4-benzoyl-N-(piperidin-4-ylmethyl)-3,4-dihydroquinoxaline-1(2H)-carboxamide] | 10 to 30 |
| CC(C)CC(=O)N1CCN(C(=O)NCC2CCNCC2)c2ccccc21 [Compound 125, 4-(3-methylbutanoyl)-N-(piperidin-4-ylmethyl)-3,4-dihydroquinoxaline-1(2H)-carboxamide] | 10 to 30 |
| CC(C)(C)CC(=O)N1CCN(C(=O)NC[C@@H]2CCNC2)c2ccccc21 [Compound 129, (R)-4-(3,3-dimethylbutanoyl)-N-(pyrrolidin-3-ylmethyl)-3,4-dihydroquinoxaline-1(2H)-carboxamide] | 10 to 30 |
| CC(C)(C)CC(=O)N1CCN(C(=O)NCC2CCNCC2)c2ccccc21 [Compound 130, 4-(3,3-dimethylbutanoyl)-N-(piperidin-4-ylmethyl)-3,4-dihydroquinoxaline-1(2H)-carboxamide] | 10 to 30 |

Tested on: not given
Assay: not given
Details: clinical use as therapeutic drug for pulmonary fibrosis; cited from earlier work

| SMILES | lung function improvement |
| --- | --- |
| Cc1ccc(=O)n(-c2ccccc2)c1 [Pirfenidone] | about 10% |

From patent US20260265189A1, “NOVEL COMPOUND, AND PHARMACEUTICAL COMPOSITION COMPRISING SAME AS ACTIVE INGREDIENT” (SAPIENSBIO INC., priority 2022, published 2026)
